Laboratory results as given in patent publication US11407736B2 (priority 2019, dated 2022).
Read-outs that look alike come from different tables or passages of the source.

What was measured:
L929 cells = experiment: L929 cell necroptosis assay (TNFa + zVAD, CellTiter-Glo); format: cell-based, murine; settings: Mus musculus, L929, L929 cells, TNFa + zVAD; read-out: L929-CTG-recovery, L929, TNFa + zVAD (IC50)
Summary of the method: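 Murine L929 cells, plated 18 h beforehand at 10K cells/well in RPMI 1640 with 10% FBS, were switched to medium containing 40 uM zVAD-fmk and given compound from 4-fold serial dilutions. Viability after 18 h of TNFa stimulation at 37° C was read by CellTiter-Glo luminescence.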

RIPK1 = RIPK1 (Homo sapiens (Human), UniProt Q13546); experiment: RIPK1 ADP-Glo biochemical kinase assay
Chain of RIPK1 (Q13546 whole entry, species assumed): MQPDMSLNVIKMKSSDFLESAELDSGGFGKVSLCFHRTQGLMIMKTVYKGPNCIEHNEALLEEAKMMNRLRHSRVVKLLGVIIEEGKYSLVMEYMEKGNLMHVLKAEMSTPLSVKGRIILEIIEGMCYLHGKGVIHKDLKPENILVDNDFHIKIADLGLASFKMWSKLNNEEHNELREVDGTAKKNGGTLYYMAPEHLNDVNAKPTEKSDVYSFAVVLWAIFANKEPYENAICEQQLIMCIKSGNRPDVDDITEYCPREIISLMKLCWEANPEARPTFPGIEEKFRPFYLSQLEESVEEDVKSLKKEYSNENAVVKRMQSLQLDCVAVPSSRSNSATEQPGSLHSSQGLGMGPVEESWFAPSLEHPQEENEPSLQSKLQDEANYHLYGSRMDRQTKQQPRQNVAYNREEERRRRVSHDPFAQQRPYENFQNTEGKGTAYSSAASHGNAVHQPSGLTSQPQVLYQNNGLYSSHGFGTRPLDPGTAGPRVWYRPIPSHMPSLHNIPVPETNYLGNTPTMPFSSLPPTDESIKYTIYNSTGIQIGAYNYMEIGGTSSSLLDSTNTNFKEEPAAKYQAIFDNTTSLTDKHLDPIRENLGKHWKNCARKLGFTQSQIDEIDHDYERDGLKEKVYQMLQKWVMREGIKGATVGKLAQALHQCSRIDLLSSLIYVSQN
Description: The final reaction volume was 5.0ul.
Adding 5 μl of ADP-Glo™ terminated the reaction.

U937 cells = experiment: U937 cell necroptosis assay (TNFa + zVAD, CellTiter-Glo); format: cell-based, human; settings: Homo sapiens, U-937, U937 cells, TNFa + zVAD; read-out: U937 Zvad TNF CTG Recovery, U937, TNFa + zVAD (IC50)
Summary of the method: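 Human U937 and murine L929 cells in RPMI 1640/10% FBS were pre-incubated 1 h at 37 °C with serially diluted compound plus zVAD-fmk (U937 plated with 60 uM, L929 medium with 40 uM), then stimulated with 2 ng/mL TNFa (final). Viability read by CellTiter-Glo luminescence after 18 h.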

[1] = read-out: RIPK1 ADP-Glo Kinase (IC50)

SMILES	IC50 (L929 cells) [nM]	IC50 (RIPK1; [1]) [nM]	IC50 (U937 cells) [nM]	IC50 (RIPK1) [nM]
CN1C(=O)[C@@H](NC(=O)c2cc(Oc3ccccc3F)ccn2)COc2ccc(C#CC(C)(C)C)cc21 [Compound I-102, (S)—N-(7-(3,3-dimethylbut-1-yn-1-yl)-5-methyl-4-oxo-2,3,4,5-tetrahydrobenzo[b][1,4]oxazepin-3-yl)-4-(2-fluorophenoxy)picolinamide]	397	383	27.3	–
CN1C(=O)[C@@H](NC(=O)c2cc(Oc3ccccc3F)ccn2)COc2ccc(C#CC(C)(C)O)cc21 [Compound I-103, (S)-4-(2-fluorophenoxy)-N-(7-(3-hydroxy-3-methylbut-1-yn-1-yl)-5-methyl-4-oxo-2,3,4,5-tetrahydrobenzo[b][1,4]oxazepin-3-yl)picolinamide]	67.4	49	1.5	–
CN1C(=O)[C@@H](NC(=O)c2cc(Oc3ccc(F)cc3F)ccn2)COc2ccc(C#CC(C)(C)C)cc21 [Compound I-104, (S)-4-(2,4-difluorophenoxy)-N-(7-(3,3-dimethylbut-1-yn-1-yl)-5-methyl-4-oxo-2,3,4,5-tetrahydrobenzo[b][1,4]oxazepin-3-yl)picolinamide]	1820	581	224	–
CN1C(=O)[C@@H](NC(=O)c2cc(Oc3ccc(F)cc3F)ccn2)COc2ccc(C#CC(C)(C)O)cc21 [Compound I-105, (S)-4-(2,4-difluorophenoxy)-N-(7-(3-hydroxy-3-methylbut-1-yn-1-yl)-5-methyl-4-oxo-2,3,4,5-tetrahydrobenzo[b][1,4]oxazepin-3-yl)picolinamide]	254	31.2	9.3	–
CN1C(=O)[C@@H](NC(=O)c2cc(Oc3cccc(F)c3)ccn2)COc2ccc(C#CC(C)(C)C)cc21 [Compound I-106, (S)—N-(7-(3,3-dimethylbut-1-yn-1-yl)-5-methyl-4-oxo-2,3,4,5-tetrahydrobenzo[b][1,4]oxazepin-3-yl)-4-(3-fluorophenoxy)picolinamide]	481	582	5.5	–
CN1C(=O)[C@@H](NC(=O)c2cc(Oc3cccc(F)c3)ccn2)COc2ccc(C#CC(C)(C)O)cc21 [Compound I-107, (S)-4-(3-fluorophenoxy)-N-(7-(3-hydroxy-3-methylbut-1-yn-1-yl)-5-methyl-4-oxo-2,3,4,5-tetrahydrobenzo[b][1,4]oxazepin-3-yl)picolinamide]	161	23.1	1.3	–
CC(C)CCc1ccc2c(c1)N(C)C(=O)[C@@H](NC(=O)c1cc(Oc3ccccc3)ccn1)CO2 [Compound I-108, (S)—N-(7-isopentyl-5-methyl-4-oxo-2,3,4,5-tetrahydrobenzo[b][1,4]oxazepin-3-yl)-4-phenoxypicolinamide]	2310	314	8.8	–
CN1C(=O)[C@@H](NC(=O)c2cc(Oc3ccccc3)ccn2)COc2ccc(C#CC(C)(C)CO)cc21 [Compound I-109, (S)—N-(7-(4-hydroxy-3,3-dimethylbut-1-yn-1-yl)-5-methyl-4-oxo-2,3,4,5-tetrahydrobenzo[b][1,4]oxazepin-3-yl)-4-phenoxypicolinamide]	24.3	–	0.4	32.1
CN1C(=O)[C@@H](NC(=O)c2cc(Oc3ccc(F)cc3)ccn2)COc2ccc(C#CC3(O)COC3)cc21 [Compound I-111, (S)-4-(4-fluorophenoxy)-N-(7-((3-hydroxyoxetan-3-yl)ethynyl)-5-methyl-4-oxo-2,3,4,5-tetrahydrobenzo[b][1,4]oxazepin-3-yl)picolinamide]	99.9	21.8	3.1	–
CN1C(=O)[C@@H](NC(=O)c2cc(Oc3ccccc3F)ccn2)COc2ccc(C#CC3(O)COC3)cc21 [Compound I-112, (S)-4-(2-fluorophenoxy)-N-(7-((3-hydroxyoxetan-3-yl)ethynyl)-5-methyl-4-oxo-2,3,4,5-tetrahydrobenzo[b][1,4]oxazepin-3-yl)picolinamide]	14.2	15.1	1.1	–
CN1C(=O)[C@@H](NC(=O)c2cc(Oc3ccc(F)cc3F)ccn2)COc2ccc(C#CC3(O)COC3)cc21 [Compound I-114, (S)-4-(2,4-difluorophenoxy)-N-(7-((3-hydroxyoxetan-3-yl)ethynyl)-5-methyl-4-oxo-2,3,4,5-tetrahydrobenzo[b][1,4]oxazepin-3-yl)picolinamide]	90.4	20.2	4.7	–
CN1C(=O)[C@@H](NC(=O)c2cc(Oc3cccc(F)c3)ccn2)COc2ccc(C#CC3(O)COC3)cc21 [Compound I-115, (S)-4-(3-fluorophenoxy)-N-(7-((3-hydroxyoxetan-3-yl)ethynyl)-5-methyl-4-oxo-2,3,4,5-tetrahydrobenzo[b][1,4]oxazepin-3-yl)picolinamide]	49.1	24	0.8	–
CN1C(=O)[C@@H](NC(=O)c2cc(Oc3ccccc3)ccn2)COc2ccc(C#CCN3CCCC3)cc21 [Compound I-116, (S)—N-(5-methyl-4-oxo-7-(3-(pyrolidin-1-yl)prop-1-yn-1-yl)-2,3,4,5-tetrahydrobenzo[b][1,4]oxazepin-3-yl)-4-phenoxypicolinamide]	136	23.4	0.7	–
CN1C(=O)[C@@H](NC(=O)c2cc(Oc3ccccc3)ccn2)COc2ccc(C#CCN3CCOCC3)cc21 [Compound I-117, (S)—N-(5-methyl-7-(3-morpholinoprop-1-yn-1-yl)-4-oxo-2,3,4,5-tetrahydrobenzo[b][1,4]oxazepin-3-yl)-4-phenoxypicolinamide]	11.2	31.6	0.2	–
CN1C(=O)[C@@H](NC(=O)c2cc(Oc3c(F)cccc3F)ccn2)COc2ccc(C#CC(C)(C)O)cc21 [Compound I-118, (S)-4-(2,6-difluorophenoxy)-N-(7-(3-hydroxy-3-methylbut-1-yn-1-yl)-5-methyl-4-oxo-2,3,4,5-tetrahydrobenzo[b][1,4]oxazepin-3-yl)picolinamide]	83	27.6	1	–
Cc1cc(Oc2ccccc2)cc(C(=O)N[C@H]2COc3ccc(C#CC(C)(C)O)cc3N(C)C2=O)n1 [Compound I-119, (S)—N-(7-(3-hydroxy-3-methylbut-1-yn-1-yl)-5-methyl-4-oxo-2,3,4,5-tetrahydrobenzo[b][1,4]oxazepin-3-yl)-6-methyl-4-phenoxypicolinamide]	4050	59.8	14.6	–
CN1C(=O)[C@@H](NC(=O)c2cc(Oc3ccccc3)ccn2)COc2ccc(C#CC3(O)CCC3)cc21 [Compound I-120, (S)—N-(7-((1-hydroxycyclobutyl)ethynyl)-5-methyl-4-oxo-2,3,4,5-tetrahydrobenzo[b][1,4]oxazepin-3-yl)-4-phenoxypicolinamide]	61.5	29.6	0.5	–
CN1C(=O)[C@@H](NC(=O)c2cc(Oc3ccccc3)ccn2)COc2ccc(C#CC3(O)CCOCC3)cc21 [Compound I-123, (S)—N-(7-((4-hydroxytetrahydro-2H-pyran-4-yl)ethynyl)-5-methyl-4-oxo-2,3,4,5-tetrahydrobenzo[b][1,4]oxazepin-3-yl)-4-phenoxypicolinamide]	53.5	35.7	0.6	–
Cc1cccc(C)c1Oc1ccnc(C(=O)N[C@H]2COc3ccc(C#CC(C)(C)O)cc3N(C)C2=O)c1 [Compound I-124, (S)-4-(2,6-dimethylphenoxy)-N-(7-(3-hydroxy-3-methylbut-1-yn-1-yl)-5-methyl-4-oxo-2,3,4,5-tetrahydrobenzo[b][1,4]oxazepin-3-yl)picolinamide]	2120	93.5	88.7	–
CN1C(=O)[C@@H](NC(=O)c2cc(Cc3ccc(F)cc3)ccn2)COc2ccc(C#CC(C)(C)O)cc21 [Compound I-125, (S)-4-(4-fluorobenzyl)-N-(7-(3-hydroxy-3-methylbut-1-yn-1-yl)-5-methyl-4-oxo-2,3,4,5-tetrahydrobenzo[b][1,4]oxazepin-3-yl)picolinamide]	116	26.2	9.8	–
CN1C(=O)[C@@H](NC(=O)c2cc(Cc3ccc(F)cc3)ccn2)COc2ccc(C#CC3(O)COC3)cc21 [Compound I-126, (S)-4-(4-fluorobenzyl)-N-(7-((3-hydroxyoxetan-3-yl)ethynyl)-5-methyl-4-oxo-2,3,4,5-tetrahydrobenzo[b][1,4]oxazepin-3-yl)picolinamide]	55.3	24.6	3.5	–
COC1(C#Cc2ccc3c(c2)N(C)C(=O)[C@@H](NC(=O)c2cc(Oc4ccccc4)ccn2)CO3)COC1 [Compound I-128, (S)—N-(7-((3-methoxyoxetan-3-yl)ethynyl)-5-methyl-4-oxo-2,3,4,5-tetrahydrobenzo[b][1,4]oxazepin-3-yl)-4-phenoxypicolinamide]	42.2	19.7	0.6	–
CN1C(=O)[C@@H](NC(=O)c2cc(Oc3ccccc3)ccn2)COc2ccc(C#CC3(F)COC3)cc21 [Compound I-129, (S)—N-(7-((3-fluorooxetan-3-yl)ethynyl)-5-methyl-4-oxo-2,3,4,5-tetrahydrobenzo[b][1,4]oxazepin-3-yl)-4-phenoxypicolinamide]	24.1	35.2	0.7	–
CN1C(=O)[C@@H](NC(=O)c2cc(Oc3ccccc3)ccn2)COc2ccc(C#CC3(OC(=O)NCCCN4CCOCC4)COC3)cc21 [Compound I-130]	89.5	30.8	1.5	–
